Measurements from US20070105892A1, “Amidino compounds as cysteine protease inhibitors” (AXYS Pharmaceuticals, Inc., priority 2003, published 2007).

CCc1noc(C(=O)[C@H](CC)NC(=O)[C@H](CC2(C)CCCC2)NC2=NS(=O)(=O)c3ccccc32)n1 [Example 1]
melting point: 202 to 204 °C
